The record followed here is PubChem BioAssay AID588654 (The Scripps Research Institute Molecular Screening Center, 2011).

What is called inhibition is the relative decrease from the control value, in per cent.

The test has as its target Epidermal growth factor receptor (Homo sapiens) (UniProt P00533). The test can be described thus: change in total EGFR protein, up or down, late-stage follow-up, counter-screen for KLF5 inhibitor project, HT29 cells, chemiluminescent western blot (AID 588654). Particulars: 24 h, at 10 µM, stronger effect = higher value. Background: Counterscreens check selectivity or assay interference.

The structures appear in SMILES notation. Activity calls are given as the source filed them.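 Rule for the calls: active = EGF receptor protein level falling or rising by at least 30% versus DMSO-treated cells; inactive = the rest.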

Chain of Epidermal growth factor receptor (Homo sapiens) (P00533 whole entry, looked up): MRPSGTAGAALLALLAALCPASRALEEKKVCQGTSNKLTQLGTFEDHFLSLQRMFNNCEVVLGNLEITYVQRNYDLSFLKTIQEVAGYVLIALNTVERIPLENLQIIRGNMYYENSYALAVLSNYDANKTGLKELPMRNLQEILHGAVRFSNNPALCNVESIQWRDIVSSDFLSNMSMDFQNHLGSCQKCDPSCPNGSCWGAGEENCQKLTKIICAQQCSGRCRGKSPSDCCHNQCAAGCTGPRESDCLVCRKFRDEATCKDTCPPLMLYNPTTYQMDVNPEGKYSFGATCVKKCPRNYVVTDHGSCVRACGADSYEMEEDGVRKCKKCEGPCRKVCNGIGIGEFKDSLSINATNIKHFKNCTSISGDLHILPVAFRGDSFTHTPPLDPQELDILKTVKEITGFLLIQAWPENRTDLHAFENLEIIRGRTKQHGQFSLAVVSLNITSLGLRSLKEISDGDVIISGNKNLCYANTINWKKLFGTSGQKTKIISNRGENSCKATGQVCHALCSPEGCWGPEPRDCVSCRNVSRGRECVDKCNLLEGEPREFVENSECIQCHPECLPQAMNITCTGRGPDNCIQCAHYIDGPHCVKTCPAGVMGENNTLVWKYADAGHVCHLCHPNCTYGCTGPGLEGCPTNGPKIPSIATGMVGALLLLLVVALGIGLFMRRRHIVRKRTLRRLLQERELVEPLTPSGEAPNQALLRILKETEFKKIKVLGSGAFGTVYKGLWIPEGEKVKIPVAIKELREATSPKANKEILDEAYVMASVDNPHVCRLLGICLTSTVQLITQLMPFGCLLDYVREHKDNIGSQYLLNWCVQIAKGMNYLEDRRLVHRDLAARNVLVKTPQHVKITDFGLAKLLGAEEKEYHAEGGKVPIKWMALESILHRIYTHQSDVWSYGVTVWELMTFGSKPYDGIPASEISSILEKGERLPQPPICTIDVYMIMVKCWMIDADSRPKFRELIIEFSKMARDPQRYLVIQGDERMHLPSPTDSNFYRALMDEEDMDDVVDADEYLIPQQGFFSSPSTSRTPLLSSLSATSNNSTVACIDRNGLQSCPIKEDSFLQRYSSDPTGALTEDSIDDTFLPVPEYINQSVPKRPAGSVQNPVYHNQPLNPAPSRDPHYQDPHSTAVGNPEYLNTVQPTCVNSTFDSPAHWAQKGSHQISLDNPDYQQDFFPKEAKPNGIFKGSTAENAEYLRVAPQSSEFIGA

Consider `CN(C(=O)CNC(=O)/C=C/c1cccc(Cl)c1)C1CCS(=O)(=O)CC1`, for which the inhibition was 7.26% (inactive).

As for `CN(C(=O)CNC(=O)/C=C/c1cccc(Cl)c1)C1CCS(=O)(=O)C1` (stereo not drawn), the inhibition was -0.393% (inactive). As for `CN(C(=O)COC(=O)/C=C/c1cccc([N+](=O)[O-])c1)C1CCS(=O)(=O)C1` (stereo not drawn), the figure is 16.4% (inactive).
